Laboratory results reported in patent publication US10450263B2, “Benzo annulenes as antiviral agents” (Southern Research Institute, priority 2017, dated 2019).
Read-outs that look alike come from different tables or passages of the source.

Columns and labels:
Chikungunya virus = test: Evaluation of antiviral activity against Chikungunya virus (EC90); type: cell-based
Description: EC90 refers to the concentration of the compound that is required for 90% antagonism or inhibition of CHIKV. EC90 also refers to the concentration of a substance that is required for 90% antagonism or inhibition of CHIKV in vivo.
(§1) The compounds below in Table 1 were synthesized with methods identical or analogous to those described herein. The requisite starting materials were commercially available, described in the literature, or readily synthesized by one skilled in the art of organic synthesis.

[1] = CC50 reported alongside the CHIKV antiviral assay (cytotoxicity); type: cell-based; conditions: cell line not given
Description: as §1

[2] = Chikungunya virus, read-out: EC90 (μM) CHIKV, concentration required for 90% inhibition of CHIKV

Which results are given for `COc1cc2c(cc1N(C)C(=O)c1ccc(C(C)(C)C)cc1)CCCCC2` [Compound 30]?
EC90 (Chikungunya virus; [2]): 14.5 µM; CC50 [1]: > 30 µM

Which EC90 (Chikungunya virus; [2]) does the source give for `COc1cc2c(cc1NC(=O)c1cc(F)c(C(C)(C)C)c(F)c1)CCCCC2` [Compound 90, 4-(tert-butyl)-3,5-difluoro-N-(3-methoxy-6,7,8,9-tetrahydro-5H-benzo[7]annulen-2-yl)benzamide] here?
The EC90 was 3.3 µM.

And the CC50 [1]?
The CC50 was greater than 30 µM.

For `CC(C)(C)c1ccc(C(=O)Nc2ccc3c(c2)CCCCC3)cc1` [Compound 19, 4-(tert-Butyl)-N-(6,7,8,9-tetrahydro-5H-benzo[7]annulen-2-yl)benzamide], which EC90 (Chikungunya virus; [2]) is on record?
Its EC90 is 0.7 µM.

What about the CC50 [1] of the same molecule?
The CC50 was 79.1 µM.

Which EC90 (Chikungunya virus; [2]) does the source give for `COc1cc2c(cc1NC(=O)Cc1cccs1)CCCCC2` [Compound 73, N-(3-Methoxy-6,7,8,9-tetrahydro-5H-benzo[7]annulen-2-yl)-2-(thiophen-2-yl)acetamide] here?
The EC90 was 18.7 µM.

And the CC50 [1]?
The CC50 was greater than 30 µM.

For `COc1cc2c(cc1N1Cc3ccc(C(C)(C)C)cc3C1=O)CCCCC2` [Compound 59, 6-(tert-Butyl)-2-(3-methoxy-6,7,8,9-tetrahydro-5H-benzo[7]annulen-2-yl)isoindolin-1-ONE], which EC90 (Chikungunya virus; [2]) is on record?
Its EC90 is greater than 10 µM.

What about the CC50 [1] of the same molecule?
The CC50 was greater than 30 µM.

Which EC90 (Chikungunya virus; [2]) does the source give for `COc1cc2c(cc1NC(=O)c1ccc(C(C)(C)C)cc1)CCCCN2` [Compound 64, 4-(tert-butyl)-N-(8-methoxy-2,3,4,5-tetrahydro-1H-benzo[b]azepin-7-yl)benzamide] here?
Its EC90 is 3.3 µM.

What about the CC50 [1] of the same molecule?
The CC50 was greater than 30 µM.

Which EC90 (Chikungunya virus; [2]) does the source give for `COc1cc2c(cc1NC(=O)c1ccc(Cl)cc1)CCCCC2` [Compound 71, 4-Chloro-N-(3-methoxy-6,7,8,9-tetrahydro-5H-benzo[7]annulen-2-yl)benzamide] here?
The EC90 was 6.4 µM.

What about the CC50 [1] of the same molecule?
Its CC50 is greater than 30 µM.

Which EC90 (Chikungunya virus; [2]) does the source give for `COc1cc2c(cc1NC(=O)C1CCOCC1)CCCCC2` [Compound 82, N-(3-methoxy-6,7,8,9-tetrahydro-5H-benzo[7]annulen-2-yl)tetrahydro-2H-pyran-4-carboxamide] here?
The EC90 was greater than 10 µM.

What about the CC50 [1] of the same molecule?
The CC50 was greater than 30 µM.

Which EC90 (Chikungunya virus; [2]) does the source give for `CCc1ccc(C(=O)Nc2cc3c(cc2OC)CCCCC3)cc1` [Compound 56, 4-Ethyl-N-(3-methoxy-6,7,8,9-tetrahydro-5H-benzo[7]annulen-2-yl)benzamide] here?
Its EC90 is greater than 10 µM.

What about the CC50 [1] of the same molecule?
The CC50 was greater than 30 µM.

Which EC90 (Chikungunya virus; [2]) does the source give for `COc1c(NC(=O)c2ccc(C(C)(C)C)cc2)cc2c(c1F)CCCCC2` [Compound 23, 4-(tert-butyl)-N-(4-fluoro-3-methoxy-6,7,8,9-tetrahydro-5H-benzo[7]annulen-2-yl)benzamide] here?
The EC90 was 12.5 µM.

What about the CC50 [1] of the same molecule?
The CC50 was greater than 30 µM.

What does the source list for `CN(C(=O)c1ccc(C(C)(C)C)cc1)c1ccc2c(c1)CCCCC2` [Compound 28, 4-(tert-butyl)-N-methyl-N-(6,7,8,9-tetrahydro-5H-benzo[7]annulen-2-yl)benzamide]?
EC90 (Chikungunya virus; [2]): > 10 µM; CC50 [1]: > 30 µM

For `COc1cc2c(cc1NC(=O)CCc1ccc(C(C)(C)C)cc1)CCCCC2` [Compound 68, 3-(4-(tert-Butyl)phenyl)-N-(3-methoxy-6,7,8,9-tetrahydro-5H-benzo[7]annulen-2-yl)propanamide], which EC90 (Chikungunya virus; [2]) is on record?
Its EC90 is greater than 10 µM.

What about the CC50 [1] of the same molecule?
The CC50 was greater than 30 µM.

For `COc1cc2c(cc1N1Cc3cc(C(C)(C)C)ccc3C1=O)CCCCC2` [Compound 60, 5-(tert-Butyl)-2-(3-methoxy-6,7,8,9-tetrahydro-5H-benzo[7]annulen-2-yl)isoindolin-1-one], which EC90 (Chikungunya virus; [2]) is on record?
Its EC90 is greater than 10 µM.

And the CC50 [1]?
The CC50 was greater than 30 µM.

For `CCCOc1cc2c(cc1NC(=O)c1ccc(C(C)(C)C)cc1)CCCCC2` [Compound 86, 4-(tert-Butyl)-N-(3-propoxy-6,7,8,9-tetrahydro-5H-benzo[7]annulen-2-yl)benzamide], which EC90 (Chikungunya virus; [2]) is on record?
Its EC90 is 7 µM.

What about the CC50 [1] of the same molecule?
Its CC50 is greater than 30 µM.

Which EC90 (Chikungunya virus; [2]) does the source give for `COc1cc2c(cc1NC(=O)c1ccc(Cl)cc1I)CCCCC2` [Compound 75, 4-Chloro-2-iodo-N-(3-methoxy-6,7,8,9-tetrahydro-5H-benzo[7]annulen-2-yl)benzamide] here?
The EC90 was 6.1 µM.

And the CC50 [1]?
The CC50 was greater than 30 µM.

Which results are given for `COc1c(NC(=O)c2cnc(C(C)(C)C)s2)cc2c(c1F)CCCCC2` [Compound 24, 2-(tert-Butyl)-N-(4-fluoro-3-methoxy-6,7,8,9-tetrahydro-5H-benzo[7]annulen-2-yl)thiazole-5-carboxamide]?
EC90 (Chikungunya virus; [2]): > 10 µM; CC50 [1]: > 30 µM

For `COCCOc1cc2c(cc1NC(=O)c1ccc(C(C)(C)C)cc1)CCCCC2` [Compound 21, 4-(tert-Butyl)-N-(3-(2-methoxyethoxy)-6,7,8,9-tetrahydro-5H-benzo[7]annulen-2-yl)benzamide], which EC90 (Chikungunya virus; [2]) is on record?
Its EC90 is greater than 30 µM.

What about the CC50 [1] of the same molecule?
Its CC50 is greater than 30 µM.

Which EC90 (Chikungunya virus; [2]) does the source give for `CC(C)(C)c1ccc(C(=O)Nc2cc3c(cc2N)CCCCC3)cc1` [Compound 20, N-(3-amino-6,7,8,9-tetrahydro-5H-benzo[7]annulen-2-yl)-4-(tert-butyl)benzamide] here?
The EC90 was greater than 30 µM.

What about the CC50 [1] of the same molecule?
Its CC50 is greater than 30 µM.

With `CC(C)(C)n1nc(C(=O)Nc2ccc3c(c2)CCCCC3)cc1C(F)(F)F` [Compound 27, 1-(tert-butyl)-N-(6,7,8,9-tetrahydro-5H-benzo[7]annulen-2-yl)-5-(trifluoromethyl)-1H-pyrazole-3-carboxamide] as the molecule, how does the EC90 (Chikungunya virus; [2]) read?
Its EC90 is greater than 10 µM.

And the CC50 [1]?
The CC50 was greater than 30 µM.

With `CCOc1cc2c(cc1NC(=O)c1ccc(C(C)(C)C)cc1)CCCCC2` [Compound 84, 4-(tert-Butyl)-N-(3-ethoxy-6,7,8,9-tetrahydro-5H-benzo[7]annulen-2-yl)benzamide] as the molecule, how does the EC90 (Chikungunya virus; [2]) read?
The EC90 was 5.19 µM.

And the CC50 [1]?
Its CC50 is 10 µM.

With `CC(C)(C)c1ccc(C(=O)Nc2cc3c(cc2[N+](=O)[O-])CCCCC3)cc1` [Compound 22, 4-(tert-butyl)-N-(3-nitro-6,7,8,9-tetrahydro-5H-benzo[7]annulen-2-yl)benzamide] as the molecule, how does the EC90 (Chikungunya virus; [2]) read?
Its EC90 is greater than 30 µM.

And the CC50 [1]?
The CC50 was greater than 30 µM.

Which CC50 [1] does the source give for `COc1cc2c(cc1NC(=O)c1ccc(C(C)(C)C)cc1)CCCCC2` [Compound 3, 4-(tert-Butyl)-N-(3-methoxy-6,7,8,9-tetrahydro-5H-benzo[7]annulen-2-yl)benzamide] here?
Its CC50 is greater than 30 µM.

With `COc1cc2c(cc1NC(=O)C13C[C@H]4C[C@@H](C1)C[C@@H](C3)C4)CCCCC2` [Compound 42, (3r,5r,7r)-N-(3-methoxy-6,7,8,9-tetrahydro-5H-benzo[7]annulen-2-yl)adamantane-1-carboxamide] as the molecule, how does the EC90 (Chikungunya virus; [2]) read?
Its EC90 is 12.1 µM.

What about the CC50 [1] of the same molecule?
Its CC50 is greater than 30 µM.

Which EC90 (Chikungunya virus; [2]) does the source give for `COc1cc2c(cc1NC(=O)c1ccc(C(C)(C)C)cc1)CCCCN2C` [Compound 65, 4-(tert-butyl)-N-(8-methoxy-1-methyl-2,3,4,5-tetrahydro-1H-benzo[b]azepin-7-yl)benzamide] here?
Its EC90 is greater than 30 µM.

What about the CC50 [1] of the same molecule?
The CC50 was greater than 30 µM.

Which results are given for `COc1cc2c(cc1NC(=O)c1ccc(C3CC3)cc1)CCCCC2` [Compound 80, 4-Cyclopropyl-N-(3-methoxy-6,7,8,9-tetrahydro-5H-benzo[7]annulen-2-yl)benzamide]?
EC90 (Chikungunya virus; [2]): 12.3 µM; CC50 [1]: > 30 µM

With `COc1cc2c(cc1NC(=O)c1ccc(C(C)(C)C#N)cc1)CCCCC2` [Compound 50, 4-(2-Cyanopropan-2-yl)-N-(3-methoxy-6,7,8,9-tetrahydro-5H-benzo[7]annulen-2-yl)benzamide] as the molecule, how does the EC90 (Chikungunya virus; [2]) read?
Its EC90 is 1.16 µM.

What about the CC50 [1] of the same molecule?
Its CC50 is 3.57 µM.

Which EC90 (Chikungunya virus; [2]) does the source give for `CC(C)(C)c1ccc(C(=O)Nc2cc3c(cc2C(F)(F)F)CCCCC3)cc1` [Compound 14, 4-(tert-butyl)-N-(3-(trifluoromethyl)-6,7,8,9-tetrahydro-5H-benzo[7]annulen-2-yl)benzamide] here?
Its EC90 is greater than 30 µM.

What about the CC50 [1] of the same molecule?
The CC50 was greater than 30 µM.

With `CCn1nc(C(=O)Nc2ccc3c(c2)CCCCC3)cc1C` [Compound 26, 1-ethyl-5-methyl-N-(6,7,8,9-tetrahydro-5H-benzo[7]annulen-2-yl)-1H-pyrazole-3-carboxamide] as the molecule, how does the EC90 (Chikungunya virus; [2]) read?
Its EC90 is greater than 30 µM.

And the CC50 [1]?
The CC50 was greater than 30 µM.

For `COc1cc2c(cc1NC(=O)c1ccc(C3(O)CCC3)cc1)CCCCC2` [Compound 66, 4-(1-Hydroxycyclobutyl)-N-(3-methoxy-6,7,8,9-tetrahydro-5H-benzo[7]annulen-2-yl)benzamide], which EC90 (Chikungunya virus; [2]) is on record?
The EC90 was greater than 10 µM.

And the CC50 [1]?
The CC50 was greater than 30 µM.

With `CC(=O)Oc1cc2c(cc1NC(=O)c1ccc(C(C)(C)C)cc1)CCCCC2` [Compound 16, 3-(4-(tert-Butyl)benzamido)-6,7,8,9-tetrahydro-5H-benzo[7]annulen-2-yl acetate] as the molecule, how does the EC90 (Chikungunya virus; [2]) read?
Its EC90 is 2.8 µM.

And the CC50 [1]?
The CC50 was greater than 30 µM.

For “3,5-Difluoro-N-(3-methoxy-6,7,8,9-tetrahydro-5H-benzo[7]annulen-2-yl)picolinamide [Compound 77]”, which EC90 (Chikungunya virus; concentration required for 90% inhibition of CHIKV, read-out: EC90 (μM) CHIKV) is on record?
The EC90 was 2.9 µM.

What about the CC50 [1] of the same molecule?
Its CC50 is greater than 30 µM.

Which EC90 (Chikungunya virus; [2]) does the source give for `COc1cc2c(cc1NC(=O)c1ccccc1C(C)(C)C)CCCCC2` [Compound 43, 2-(tert-Butyl)-N-(3-methoxy-6,7,8,9-tetrahydro-5H-benzo[7]annulen-2-yl)benzamide] here?
The EC90 was 3.2 µM.

And the CC50 [1]?
The CC50 was greater than 30 µM.

Which EC90 (Chikungunya virus; [2]) does the source give for `COc1cc2c(cc1NC(=O)c1cnc(C)s1)CCCCC2` [Compound 33, N-(3-methoxy-6,7,8,9-tetrahydro-5H-benzo[7]annulen-2-yl)-2-methylthiazole-5-carboxamide] here?
The EC90 was greater than 30 µM.

And the CC50 [1]?
The CC50 was greater than 30 µM.

With `COc1cc2c(cc1NC(=O)c1cc(C(C)(C)C)c(O)c(C(C)(C)C)c1)CCCCC2` [Compound 70, 3,5-Di-tert-butyl-4-hydroxy-N-(3-methoxy-6,7,8,9-tetrahydro-5H-benzo[7]annulen-2-yl)benzamide] as the molecule, how does the EC90 (Chikungunya virus; [2]) read?
The EC90 was 44.8 µM.

And the CC50 [1]?
The CC50 was greater than 30 µM.

With `CC(C)(C)c1ccc(C(=O)Nc2cc3c(cc2OCc2ccccn2)CCCCC3)cc1` [Compound 85, 4-(tert-Butyl)-N-(3-(pyridin-2-ylmethoxy)-6,7,8,9-tetrahydro-5H-benzo[7]annulen-2-yl)benzamide] as the molecule, how does the EC90 (Chikungunya virus; [2]) read?
The EC90 was greater than 10 µM.

And the CC50 [1]?
Its CC50 is 9.4 µM.

With `COc1cc2c(cc1NC(=O)c1cnc(C(C)(C)C)s1)CCCCC2` [Compound 44, 2-(tert-Butyl)-N-(3-methoxy-6,7,8,9-tetrahydro-5H-benzo[7]annulen-2-yl)thiazole-5-carboxamide] as the molecule, how does the EC90 (Chikungunya virus; [2]) read?
The EC90 was 1.2 µM.

What about the CC50 [1] of the same molecule?
Its CC50 is greater than 30 µM.

With `COc1cc2c(cc1NC(=O)c1ccc(C(C)(C)C)c(F)c1)CCCCC2` [Compound 53, 4-(tert-Butyl)-3-fluoro-N-(3-methoxy-6,7,8,9-tetrahydro-5H-benzo[7]annulen-2-yl)benzamide] as the molecule, how does the EC90 (Chikungunya virus; [2]) read?
Its EC90 is 2.24 µM.

And the CC50 [1]?
Its CC50 is greater than 30 µM.
